From patent publication US4968819A, “Process for the preparation of chromene derivatives” (Alkaloida Vegyeszeti Gyar, priority 1983, dated 1990)
Read-outs that look alike come from different tables or passages of the source.

Experiments:
Assay type in all cases: in vivo
[1] = tested on: tomato root gall nematode (Meloidogyne incognita); experiment: Tomato root gall nematode test (II. stage infective larvae, treated NGM agar plate); conditions: 72 hours; for mortality at 200 µg/mL / mortality at 400 µg/mL: Meloidogyne incognita
Protocol: (6) Root gall nematode The test is carried out on II. stage infective larvae, which are collected from the root of tomato plant, placed on a filter and incubated in sterile water at 25° C. The hatched larvae are collected every 24 hours and immediately placed onto the treated nutrient medium. As nutrient medium NGM agar plate free from bacterial is used. 0.5 ml of the acetoneous solution of the test compound is applied onto the surface of the plate in a Petri-dish. After the acetone has evaporated 5 μl of the larva suspension is applied onto each plate. After 72 hours the surviving and killed insects are counted.

Caenorhabditis elegans = Caenorhabditis elegans test (treated NGM agar plate, young adults)
Protocol: (5) Caenorhabditis elegans 0.5 ml of the acetonous solution of the test compound is applied onto a NGM agar plate free from bacteria in a Petri dish. After the acetone has dried 25-30 young adults are placed on the plate. After 24 hours the surviving and killed insects are counted.

[2] = tested on: cotton bug (Dysdercus fasciatus); experiment: Cotton bug test (topical application on II. stage larvae); conditions: for AJH effect: adultoid symptoms
Protocol: (1) Cotton bug test A dilution series is prepared from the test compound with acetone and 0.2 μl of each dilution is topically applied onto the back part of larvae of the II. stage of growth with the aid of a Hamiltion syringe. The active ingredient is absorbed through the cuticula. The animals are kept in a large glass and fed with cotton grains and water. After adult shedding the surviving insects are observed for eventual adultoid symptoms, the egg-reproduction and the development of the ovules is evaluated too. (Remark: in the cotton bug test 50 insects are used).

[3] = tested on: cabbage butterfly (Pieris brassicae); experiment: Cabbage butterfly test (sprayed cabbage seedlings); conditions: 50 EC; for pest or weed control at 0.01 % / pest or weed control at 0.1 %: Pieris brassicae, read-out: Killing rate of larvae
Protocol: From the 50 EC of the test compound a diluted series is prepared with water and the host seedlings (cabbage) are sprayed with this composition until the spray runs down. The spray is allowed to dry whereupon 20 young larvae of the II. stage are placed on each treated plant and the seedlings are kept under so-called "long-day" illumination (18 hours of illumination and 6 hours of darkness). The nibbled plants are replaced by similarly sprayed plants if necessary. The killing rate of the insects, the growth rate of the larvae and the morphological deformations of the surviving nymphs and adults are registered.
In the 50 EC compositions the concentration of compounds 23 and 25 amounts to 0.01% and that of the other compounds to 0.1%.

[4] = tested on: domestic fly (Musca domestica); experiment: Domestic fly test (larvae in treated nutrient medium); conditions: 0.1% related to milk, 0.05% related to total nutrient medium
Protocol: The fly larvae are grown on a nutrient medium of the following composition: 2 ml of milk; 2 ml of water; 2 g of wheat bran; 0.1 ml of saturated alcoholic nipagin solution.
The nutrient medium is filled into cylindrical glass vials (30×100 mm) and 25 fly larvae are raised in each vial. The test compound is dissolved in milk; the end concentration (related to milk) amounts to 0.1% which corresponds to 0.05% (related to the total nutrient medium). The solution of the active ingredient is admixed with the nutrient medium whereupon […] of domestic fly larvae of the I. stage are placed into each vial and the vials are closed with a hard cotton-wool stopper. The nymphs emerging from the larvae are collected in each vial, counted and kept in a Petri dish (diameter 25 mm) until flies hatch from the nymphs. The hatched flies are counted.

[5] = 200 μg/ml, first test, read-out: mortality 1.
[6] = 200 μg/ml, second test, read-out: mortality 2.
[7] = 200 μg/ml, read-out: mortality Average
[8] = 400 μg/ml, first test, read-out: mortality 1.
[9] = 400 μg/ml, second test, read-out: mortality 2.
[10] = 400 μg/ml, read-out: mortality Average
[11] = Caenorhabditis elegans, 24 h, read-out: Lethality

CCOc1cc2c(cc1OCC)OC(C)(C)C=C2 [Compound 2]
Nematocidal effect ([1]; 200 μg/ml): strong | Nematocidal effect ([1]; 400 μg/ml): strong | mortality at 200 µg/mL [1, 5]: 74% | mortality at 200 µg/mL [1, 6]: 69% | mortality at 200 µg/mL [1, 7]: 72% | mortality at 400 µg/mL [1, 8]: 83% | mortality at 400 µg/mL [1, 9]: 90% | mortality at 400 µg/mL [1, 10]: 87%

CC1(C)C=Cc2cc3c(cc2O1)OCO3 [Compound 4]
Size of descendant population (Caenorhabditis elegans; 100 μg/ml): no descendants | Size of descendant population (Caenorhabditis elegans; 200 μg/ml): no descendants | Size of descendant population (Caenorhabditis elegans; 400 μg/ml): no descendants | mortality at 100 µg/mL (Caenorhabditis elegans; [11]): 100% | mortality at 200 µg/mL (Caenorhabditis elegans; [11]): 100% | mortality at 400 µg/mL (Caenorhabditis elegans; [11]): 100% | Nematocidal effect ([1]; 200 μg/ml): strong | Nematocidal effect ([1]; 400 μg/ml): strong | mortality at 200 µg/mL [1, 5]: 84% | mortality at 200 µg/mL [1, 6]: 69% | mortality at 200 µg/mL [1, 7]: 77% | mortality at 400 µg/mL [1, 8]: 96% | mortality at 400 µg/mL [1, 9]: 92% | mortality at 400 µg/mL [1, 10]: 94%

C=CCOc1cc2c(cc1OCC=C)OC(C)(C)C=C2 [Compound 5]
Size of descendant population (Caenorhabditis elegans; 200 μg/ml): some descendants | Size of descendant population (Caenorhabditis elegans; 400 μg/ml): no descendants | Nematocidal effect ([1]; 400 μg/ml): medial | mortality at 200 µg/mL [1, 5]: 18% | mortality at 200 µg/mL [1, 6]: 29% | mortality at 200 µg/mL [1, 7]: 23% | mortality at 400 µg/mL [1, 8]: 45% | mortality at 400 µg/mL [1, 9]: 43% | mortality at 400 µg/mL [1, 10]: 44%

C=CCOc1cc2c(cc1OC)C=CC(C)(C)O2 [Compound 7]
Size of descendant population (Caenorhabditis elegans; 200 μg/ml): no descendants | Size of descendant population (Caenorhabditis elegans; 400 μg/ml): no descendants | mortality at 200 µg/mL (Caenorhabditis elegans; [11]): 90% | mortality at 400 µg/mL (Caenorhabditis elegans; [11]): 90%

COc1cc2c(cc1OC(C)C)OC(C)(C)C=C2 [Compound 8]
LD50 [2]: 0.45 μg/insect | Sterilizing effect [2]: 0.2 μg/insect | AJH effect [2]: 1 μg/insect | Size of descendant population (Caenorhabditis elegans; 200 μg/ml): reduced | Size of descendant population (Caenorhabditis elegans; 400 μg/ml): no descendants | mortality at 200 µg/mL (Caenorhabditis elegans; [11]): 70% | mortality at 400 µg/mL (Caenorhabditis elegans; [11]): 80%

CC(C)=CCOc1cc2c(cc1OCC=C(C)C)OC(C)(C)C=C2 [Compound 10]
LD50 [2]: 0.6 μg/insect

CCCCOc1cc2c(cc1OCCCC)OC(C)(C)C=C2 [Compound 14]
Size of descendant population (Caenorhabditis elegans; 200 μg/ml): reduced | Size of descendant population (Caenorhabditis elegans; 400 μg/ml): reduced | mortality at 200 µg/mL (Caenorhabditis elegans; [11]): 30% | mortality at 400 µg/mL (Caenorhabditis elegans; [11]): 80%

CCC(C)Oc1cc2c(cc1OC)C=CC(C)(C)O2 (stereo not shown) [Compound 20]
LD50 [2]: 0.4 μg/insect | AJH effect [2]: 0.1 μg/insect

COc1cc2c(cc1OCC(C)C)OC(C)(C)C=C2 [Compound 21]
LD50 [2]: 0.4 μg/insect

COc1ccc2c(c1)OC(C)(C)C=C2 [Compound 23, 7-methoxy-2,2-dimethyl-2H-chromene, reference compound]
Survival adult ([3]; 0.01%): 50% | Survival nymph ([3]; 0.01%): 59% | pest or weed control at 0.01 % ([3]; 0.01%): 41% | Survival adult [4]: 33.3% | Survival nymph [4]: 100% | Size of descendant population (Caenorhabditis elegans; 200 μg/ml): reduced | Size of descendant population (Caenorhabditis elegans; 400 μg/ml): no descendants

CCCOc1ccc2c(c1)OC(C)(C)C=C2 [Compound 25]
Survival adult ([3]; 0.01%): 39% | Survival nymph ([3]; 0.01%): 48% | pest or weed control at 0.01 % ([3]; 0.01%): 52%

CCC(C)Oc1ccc2c(c1)OC(C)(C)C=C2 (stereo not shown) [Compound 28]
Survival adult [4]: 25.6% | Survival nymph [4]: 115%

CC(C)COc1ccc2c(c1)OC(C)(C)C=C2 [Compound 29]
Survival adult [4]: 28.2% | Survival nymph [4]: 100%

CCOc1cc2c(cc1OC)OC(C)(C)C=C2 [Compound 34]
Survival adult [4]: 12.8% | Survival nymph [4]: 85% | Remarks (Caenorhabditis elegans; 200 μg/ml): paralysation | Size of descendant population (Caenorhabditis elegans; 200 μg/ml): reduced | Remarks (Caenorhabditis elegans; 400 μg/ml): paralysation | Size of descendant population (Caenorhabditis elegans; 400 μg/ml): some descendants | mortality at 200 µg/mL (Caenorhabditis elegans; [11]): 15% | mortality at 400 µg/mL (Caenorhabditis elegans; [11]): 23%

COc1ccc2c(c1OC)OC(C)(C)C=C2 [Compound 35]
Survival adult [4]: 0% | Survival nymph [4]: 12% | Remarks (Caenorhabditis elegans; 200 μg/ml): paralysation | Size of descendant population (Caenorhabditis elegans; 200 μg/ml): reduced | Remarks (Caenorhabditis elegans; 400 μg/ml): paralysation | Size of descendant population (Caenorhabditis elegans; 400 μg/ml): no descendants | mortality at 200 µg/mL (Caenorhabditis elegans; [11]): 67% | mortality at 400 µg/mL (Caenorhabditis elegans; [11]): 100%

C#CCOc1ccc2c(c1)OC(C)(C)C=C2 [Compound 37]
Remarks (Caenorhabditis elegans; 200 μg/ml): paralysation | Size of descendant population (Caenorhabditis elegans; 200 μg/ml): no descendants | Remarks (Caenorhabditis elegans; 400 μg/ml): paralysation | Size of descendant population (Caenorhabditis elegans; 400 μg/ml): no descendants | mortality at 200 µg/mL (Caenorhabditis elegans; [11]): 100% | mortality at 400 µg/mL (Caenorhabditis elegans; [11]): 100%

CCOc1cc(C)c2c(c1)OC(C)(C)C=C2 [Compound 38]
Survival adult ([3]; 0.1%): 19% | Survival nymph ([3]; 0.1%): 19% | pest or weed control at 0.1 % ([3]; 0.1%): 81% | Survival adult [4]: 14.8% | Survival nymph [4]: 40%

Cc1cc(OC(C)C)cc2c1C=CC(C)(C)O2 [Compound 40]
Survival adult [4]: 27.6% | Survival nymph [4]: 50.9%

CCC(C)Oc1cc(C)c2c(c1)OC(C)(C)C=C2 (stereo not shown) [Compound 41]
Survival adult ([3]; 0.1%): 14% | Survival nymph ([3]; 0.1%): 19% | pest or weed control at 0.1 % ([3]; 0.1%): 11% | Survival adult [4]: 12.5% | Survival nymph [4]: 25.4%

Cc1cc(OC2CCCC2)cc2c1C=CC(C)(C)O2 [Compound 43]
pest or weed control at 0.1 % ([3]; 0.1%): 100% | Survival adult [4]: 31.8% | Survival nymph [4]: 52.7%

C#CCOc1cc(C)c2c(c1)OC(C)(C)C=C2 [Compound 44]
Survival adult ([3]; 0.1%): 17% | Survival nymph ([3]; 0.1%): 17% | pest or weed control at 0.1 % ([3]; 0.1%): 83% | Survival adult [4]: 10.6% | Survival nymph [4]: 50.9% | Remarks (Caenorhabditis elegans; 200 μg/ml): paralysation | Size of descendant population (Caenorhabditis elegans; 200 μg/ml): some descendants | Remarks (Caenorhabditis elegans; 400 μg/ml): paralysation | Size of descendant population (Caenorhabditis elegans; 400 μg/ml): no descendants

CCCOc1cc(OC)c2c(c1)OC(C)(C)C=C2 [Compound 46]
Survival adult ([3]; 0.1%): 12% | Survival nymph ([3]; 0.1%): 12% | pest or weed control at 0.1 % ([3]; 0.1%): 88% | Survival adult [4]: 6.4% | Survival nymph [4]: 9.1%

COc1cc(OC(C)C)cc2c1C=CC(C)(C)O2 [Compound 47]
Survival adult ([3]; 0.1%): 9% | Survival nymph ([3]; 0.1%): 13% | pest or weed control at 0.1 % ([3]; 0.1%): 87%

CCC(C)Oc1cc(OC)c2c(c1)OC(C)(C)C=C2 (stereo not shown) [Compound 48, 5-methoxy-7-sec. butoxy-2,2-dimethyl-2H-chromene]
pest or weed control at 0.1 % ([3]; 0.1%): 100%

COc1cc(OCC(C)C)cc2c1C=CC(C)(C)O2 [Compound 49]
pest or weed control at 0.1 % ([3]; 0.1%): 100% | Survival adult [4]: 0% | Survival nymph [4]: 0%

CCOc1ccc2c(c1OC)OC(C)(C)C=C2 [Compound 50]
Survival adult ([3]; 0.1%): 24% | Survival nymph ([3]; 0.1%): 24% | pest or weed control at 0.1 % ([3]; 0.1%): 76% | Survival adult [4]: 4.2% | Survival nymph [4]: 5.4% | Size of descendant population (Caenorhabditis elegans; 200 μg/ml): reduced | Size of descendant population (Caenorhabditis elegans; 400 μg/ml): no descendants

COc1c(OC(C)C)ccc2c1OC(C)(C)C=C2 [Compound 52]
Survival adult ([3]; 0.1%): 32% | Survival nymph ([3]; 0.1%): 36% | pest or weed control at 0.1 % ([3]; 0.1%): 64% | Survival adult [4]: 0% | Survival nymph [4]: 12% | Size of descendant population (Caenorhabditis elegans; 200 μg/ml): reduced | Size of descendant population (Caenorhabditis elegans; 400 μg/ml): reduced

CCC(C)Oc1ccc2c(c1OC)OC(C)(C)C=C2 (stereo not shown) [Compound 53, 7sec. butoxy-8-methoxy-2,2-dimethyl-2chromene]
pest or weed control at 0.1 % ([3]; 0.1%): 100% | Size of descendant population (Caenorhabditis elegans; 200 μg/ml): reduced | Size of descendant population (Caenorhabditis elegans; 400 μg/ml): reduced

COc1c(OCC(C)C)ccc2c1OC(C)(C)C=C2 [Compound 54]
Survival adult ([3]; 0.1%): 7% | Survival nymph ([3]; 0.1%): 7% | pest or weed control at 0.1 % ([3]; 0.1%): 93%
